The text below walks through data of patent US20190352358A1, “COMPOUNDS, COMPOSITIONS AND USES THEREOF FOR IMPROVEMENT OF BONE DISORDERS” (ALIZE PHARMA III SAS, priority 2017, published 2019).

Non-standard residues stand in square brackets, D forms with d. Residues, ends and D or L forms follow the SMILES beside them. Primed or numbered codes have the meaning given here. No end group written: not given here. *: point of attachment. PEG20′ = PEG20 chain (pegylated), attached via a cysteine; C16 diacid = O=C(O)CCCCCCCCCCCCCCC(=O)*; Arachidoyl = CCCCCCCCCCCCCCCCCCCC(=O)*; Palmitoyl = CCCCCCCCCCCCCCCC(=O)*; Myristoyl = CCCCCCCCCCCCCC(=O)*

Data set [1] deals with MC-3T3 E1 clone 4 (CL4) osteoblast cells. Kind of data set: Osteocalcin expression during in vitro osteoblast differentiation, PEGylated analogs (Example 6). The data set is classed as cell-based. As to conditions: Table 17; test peptide 2 μg/mL; 18-21 day interval. On the procedure:
(§1) Each peptide was tested in a biologic assay measuring its ability to stimulate differentiation of osteoblast cells over a 18-21 day interval as assessed by the stimulation of osteocalcin protein synthesis. MC-3T3 E1 clone 4 (CL4) osteoblast cells were obtained from ATCC (Manassas, Va., USA). Cells were cultured in α-MEM containing 10% fetal bovine serum (FBS; Thermo Fisher Scientific, Pittsburgh, Pa., USA). After confluency, culture medium was changed to differentiation medium (DM), which contained 10% FBS plus 50 μg/mL ascorbic acid and 4 mM β-glycerol phosphate, with or without a test peptide (2 μg/mL). Fresh DM, with or without test peptide, was applied every 72 hours. The cell monolayers were lysed in a modified radioimmunoprecipitation assay (RIPA) buffer. Total cellular protein in the lysates was determined using BCA (Thermo Fisher Scientific, Rockford, Ill., USA). Cell proteins are separated on SD S-PAGE gel and transferred on PVDF membrane for analysis. Osteocalcin detection was performed using anti-osteocalcin antibody at 1:200 dilution (Santa Cruz Biotechnology, Inc, Santa Cruz, Calif., USA) and visualized using enhanced chemiluminescence (Thermo Fisher Scientific, Rockford, Ill., USA).

Data set [2] in a line: Pharmacokinetics in male Sprague Dawley rats after intravenous and subcutaneous injection (Example 10). As to conditions: 1 μmol net peptide/kg, rat. In kind it is in vivo. On the procedure:
The peptides were reconstituted in saline (0.9% NaCl). Three male Sprague Dawley rats were used per group. Intravenous doses were administered into a lateral tail vein at the dose of 1 μmol net peptide/kg. Subcutaneous doses were administered into the right flank of each animal, also at the dose of 1 μmol net peptide/kg. Following dosing, serial whole blood samples (ca. 0.25 mL) were collected from a lateral tail vein into K2EDTA treated containers. Following each blood sample collection, samples were placed into a cooling block at 4° C. Samples were collected prior to dosing then at 2, 5, 15 and 30 minutes then 1, 2, 4, 6 and 8 and 24 hours post dose for intravenous injection and at 15 and 30 minutes then 1, 2, 4, 6, 8 and 24 hours post dose for subcutaneous injection.
Blood samples were centrifuged at 10000×g for 2 minutes at 4° C. and resultant plasma aspirated off into clean fully, labelled tubes. Plasma samples were snap frozen following aspiration then stored at −80° C. Peptides were extracted and analyzed as described in Example 9. The limits of quantification of these methods were 0.001 nmol/mL for cyclic HBD1 (3-11) and HBD1 (3-11) and 0.003 nmol/mL for HBD1 (1-13). All values below these limits of quantification were considered as zero.

Data set [3] deals with MC-3T3 E1 clone 4 (CL4) osteoblast cells. As to the kind of experiment: Osteocalcin expression during in vitro osteoblast differentiation, acylated and cyclic analogs (Example 7). The data set is classed as cell-based. As to conditions: for Fold increase vs DM ± SE: Table 18, test peptide 1 μg/L, 18-21 day interval. On the procedure: as §1, with “Each acylated” for “Each”, “(1 μg/L).” for “(2 μg/mL).”, “SDS-PAGE” for “SD S-PAGE”
In a separate experiment, the effect of cyclization was examined on of the HBD1 (3-11) peptide. The cyclic HBD1 (3-11) was synthetized and tested on the in vitro osteoblast differentiation assay.

Data set [4] in a line: Pharmacokinetics of acylated analogs in male Sprague Dawley rats after subcutaneous injection (Example 11). The data set is classed as in vivo. The arrangement: AUC(0-t): concentration or dose not given beside the values. Particulars: sc, rat, Table 24. The method, then:
The peptides were reconstituted in saline (0.9% NaCl). Three male Sprague Dawley rats (approximately 6 weeks of age) were used per group. Subcutaneous doses were administered into the right flank of each animal […]. Following dosing, serial whole blood samples (ca. 0.3 mL) were collected from retro-orbital sinus into K2EDTA treated containers. Following each blood sample collection, samples were placed into a cooling block at 4° C. Samples were collected prior to dosing then at 15 and 30 minutes then 1, 2, 4, 6, 8 and 24 hours post dose for subcutaneous injection. Blood samples were centrifuged at 3500×rpm for 10 minutes at 4° C. and resultant plasma aspirated off into clean fully, labelled tubes. Plasma samples were snap frozen following aspiration then stored at −80° C. The peptides were extracted with acetonitrile:water (75:25, v/v) and analyzed using developed LC-MS/MS methods as described in Example 9. The limits of detection of these methods are 0.003 nmol/mL for HBD1 (1-13) with palmitic acid at the N-terminus (C16:0), 0.0008 nmol/mL for HBD1 (3-11) with palmitic acid at the N-terminus (C16:0), 0.0070 nmol/mL for HBD1 (3-11) with stearic acid at the N-terminus (C18:0), and 0.0015 nmol/mL for HBD1 (3-11) with myristic acid at the N-terminus (C14:0), HBD1 (3-11) with arachidic acid at the N-terminus (C20:0), HBD1 (3-11) with palmitic diacid at the N-terminus (C16:0-diacid), HBD1 (3-11) with palmitic acid at the C-terminus (C16:0). All values below these limits of quantification were considered as zero.

[5] abbreviates: male, Sprague Dawley, plasma, iv.
[6] abbreviates: male, Sprague Dawley, plasma, sc.

Consider 65 ([PEG20′]CHHLGLEEPKK) [compound 65], for which the “Fold increase vs SEQ ID NO: 1 ± SE” value in data set [1] was 1.4 ± 0.1 fold.
Regarding `CC(C)C[C@@H]1NC(=O)CNC(=O)[C@H](CC(C)C)NC(=O)[C@H](Cc2c[nH]cn2)NC(=O)[C@H](CCCCN)NC(=O)[C@H](CCCCN)NC(=O)[C@@H]2CCCN2C(=O)[C@H](CCC(=O)O)NC(=O)[C@H](CCC(=O)O)NC1=O` [SEQ ID NO: 77, Cyclic(HLGLEEPKK)] (cyclo(EEPKKHLGL)), the “Tlast (last time point with detectable peptide)” value (shortened to “Tlast”) in data set [2] (iv, listed as Cyclic HBD1 (3-11)) is on record as 8 h; in data set [2] (sc, listed as Cyclic HBD1 (3-11)), 4 h; in data set [2] (sc, listed as cyclic HBD1 (3-11)), ≤ 4 h. Moreover, in data set [2] (male, Sprague Dawley, plasma, subcutaneous, sc vs iv, read-out: F (bioavailability)), the bioavailability (in general, the share of a dose that reaches the circulation, judged against a reference dose that is usually intravenous) worked out at 48%. The AUC(0-t) (commonly the area under the concentration-time curve up to a stated or last time point) stood at 2.09 µM·h in data set [2] (setting [5]) and 0.99 µM·h in data set [2] (setting [6]). Further, the maximum concentration (Cmax) – broadly, the maximum level reached in the sampled fluid or tissue – in data set [2] (setting [5]) turned out to be 5720 nM; in data set [2] (setting [6]), 1060 nM. For the same molecule, the time of peak concentration (Tmax) – broadly, the time at which the peak concentration occurs – in data set [2] (setting [5]) was found to be 1.98 min; in data set [2] (setting [6]), 15 min. Moreover, the “in vitro biological activity of acylated or cyclic peptides vs parent peptides (in words)” value in data set [3] (text on Table 18 and separate experiment) is recorded as “did not appear to change the in vitro biological activity”.
As for `CCCCCCCCCCCCCC(=O)N[C@@H](Cc1c[nH]cn1)C(=O)N[C@@H](CC(C)C)C(=O)NCC(=O)N[C@@H](CC(C)C)C(=O)N[C@@H](CCC(=O)O)C(=O)N[C@@H](CCC(=O)O)C(=O)N1CCC[C@H]1C(=O)N[C@@H](CCCCN)C(=O)N[C@@H](CCCCN)C(=O)O` [compound 71] (Myristoyl-HLGLEEPKK-OH; C-terminus assumed), the “Fold increase vs DM ± SE” value in data set [3] was 1.98 ± 0.22 fold. Besides, in data set [4] (male, Sprague Dawley, plasma), the AUC(0-t) was 1.11 µM·h, the peak concentration (Cmax) was determined as 240 nM and the Tmax is 60 min. Besides, the “Tlast” value in data set [4] is reported as 6 h.
With 67 ([PEG20′]CHLGLEEPKK) [compound 67], in data set [1], the “Fold increase vs SEQ ID NO: 1 ± SE” value is reported as 1.9 ± 0.2 fold.
Consider `CCCCCCCCCCCCCCCC(=O)NCCCC[C@H](NC(=O)[C@H](CCCCN)NC(=O)[C@@H]1CCCN1C(=O)[C@H](CCC(=O)O)NC(=O)[C@H](CCC(=O)O)NC(=O)[C@H](CC(C)C)NC(=O)CNC(=O)[C@H](CC(C)C)NC(=O)[C@@H](N)Cc1c[nH]cn1)C(=O)O` [compound 76] (H-HLGLEEPKK(Palmitoyl)-OH; N-terminus and C-terminus assumed), for which the “Fold increase vs DM ± SE” value in data set [3] amounted to 3.18 ± 0.31 fold. In data set [4] (in vivo), the AUC(0-t) amounted to 1.09 µM·h, the Cmax came out at 500 nM and the time of peak concentration (Tmax) turned out to be 15 min. For the same molecule, the “Tlast” value in data set [4] is reported as 8 h.
In the case of `CC(C)C[C@H](NC(=O)CNC(=O)[C@H](CC(C)C)NC(=O)[C@H](Cc1c[nH]cn1)NC(=O)CCCCCCCCCCCCCCC(=O)O)C(=O)N[C@@H](CCC(=O)O)C(=O)N[C@@H](CCC(=O)O)C(=O)N1CCC[C@H]1C(=O)N[C@@H](CCCCN)C(=O)N[C@@H](CCCCN)C(=O)O` [compound 75] ({C16 diacid}-HLGLEEPKK-OH; C-terminus assumed), the “Fold increase vs DM ± SE” value in data set [3] is given as 3.39 ± 0.19 fold. In data set [4] (male, Sprague Dawley, plasma), the exposure AUC(0-t) amounted to 1.14 µM·h, the Cmax was determined as 580 nM and the Tmax was 15 min. For the same molecule, in data set [4], the “Tlast” value is on record as 8 h.
On to “66 (HHLGLEEPKK; not fully specified; MOD_RES (10)..(10) Pegylated) [compound 66]”, for which the “Fold increase vs SEQ ID NO: 1 ± SE” value in data set [1] is listed as 2.2 ± 0.2 fold.
Consider “64 (KHHLGLEEPKKLR; not fully specified; MOD_RES (13)..(13) Pegylated) [compound 64]”, for which, in data set [1], the “Fold increase vs SEQ ID NO: 1 ± SE” value came to 2.2 ± 0.4 fold.
For the molecule `CCCCCCCCCCCCCCCCCCCC(=O)N[C@@H](Cc1c[nH]cn1)C(=O)N[C@@H](CC(C)C)C(=O)NCC(=O)N[C@@H](CC(C)C)C(=O)N[C@@H](CCC(=O)O)C(=O)N[C@@H](CCC(=O)O)C(=O)N1CCC[C@H]1C(=O)N[C@@H](CCCCN)C(=O)N[C@@H](CCCCN)C(=O)O` [compound 74] (Arachidoyl-HLGLEEPKK-OH), the “Fold increase vs DM ± SE” value in data set [3] came to 5.05 ± 0.95 fold. For the same molecule, in data set [4] (male, Sprague Dawley, plasma), the AUC(0-t) came out at 2.58 µM·h, the peak level (Cmax) was 250 nM and the Tmax was 120 min. The “Tlast” value in data set [4] is given as 8 h.
As for “63 ([PEG20′]CKHHLGLEEPKKLR) [compound 63]”, the “Fold increase vs SEQ ID NO: 1 ± SE” value in data set [1] is 1.4 ± 0.3 fold.
